In brackets after ≈: the same amount, converted by molar mass.
Molecular target: α-amylase
Test: In vitro α-amylase inhibition assay
Type: biochemical
Conditions: phosphate buffer pH 6.8, 37 °C

| IC50 α-amylase [µg/mL] | Compound |
| --- | --- |
| 118.4 ± 1.38 | Quercetin [Compound 4] |
| 135.2 ± 1.84 (≈ 472 µM) | O=c1c(O)c(-c2ccc(O)cc2)oc2cc(O)cc(O)c12 [Compound 3, Kaempferol] |
| 180.6 ± 2.04 (≈ 304 µM) | O=C(/C=C/c1ccc(O)cc1)OC[C@H]1O[C@@H](Oc2c(-c3ccc(O)cc3)oc3cc(O)cc(O)c3c2=O)[C@H](O)[C@@H](O)[C@@H]1O [Compound 2, Tiliroside] |
| 177.2 ± 2.01 (≈ 290 µM) | C[C@@H]1O[C@@H](OC[C@H]2O[C@@H](Oc3c(-c4ccc(O)c(O)c4)oc4cc(O)cc(O)c4c3=O)[C@H](O)[C@@H](O)[C@@H]2O)[C@H](O)[C@H](O)[C@H]1O [Compound 5, Rutin] |
